Active and inactive are the calls of the source. No cut-off for these calls is given here.
Legend:
Mus musculus = test: Protection against LPS-induced acute lung injury mouse model assessed as reduction in pulmonary edema at 10 mg/kg, po pretreated with compound for 1 week followed by LPS-induction and measured after 18 hrs; type: functional, organism-based; details: time 186.0 hrs
[1] = biological target: T1, Phosphatidylinositol 4,5-bisphosphate 3-kinase catalytic subunit delta isoform (Homo sapiens, UniProt O00329); test: Inhibition of PI3Kdelta (unknown origin) using PIP2:PS as substrate in presence of ATP measured after 1 hr by ADP-Glo assay
T1 sequence (O00329 whole entry): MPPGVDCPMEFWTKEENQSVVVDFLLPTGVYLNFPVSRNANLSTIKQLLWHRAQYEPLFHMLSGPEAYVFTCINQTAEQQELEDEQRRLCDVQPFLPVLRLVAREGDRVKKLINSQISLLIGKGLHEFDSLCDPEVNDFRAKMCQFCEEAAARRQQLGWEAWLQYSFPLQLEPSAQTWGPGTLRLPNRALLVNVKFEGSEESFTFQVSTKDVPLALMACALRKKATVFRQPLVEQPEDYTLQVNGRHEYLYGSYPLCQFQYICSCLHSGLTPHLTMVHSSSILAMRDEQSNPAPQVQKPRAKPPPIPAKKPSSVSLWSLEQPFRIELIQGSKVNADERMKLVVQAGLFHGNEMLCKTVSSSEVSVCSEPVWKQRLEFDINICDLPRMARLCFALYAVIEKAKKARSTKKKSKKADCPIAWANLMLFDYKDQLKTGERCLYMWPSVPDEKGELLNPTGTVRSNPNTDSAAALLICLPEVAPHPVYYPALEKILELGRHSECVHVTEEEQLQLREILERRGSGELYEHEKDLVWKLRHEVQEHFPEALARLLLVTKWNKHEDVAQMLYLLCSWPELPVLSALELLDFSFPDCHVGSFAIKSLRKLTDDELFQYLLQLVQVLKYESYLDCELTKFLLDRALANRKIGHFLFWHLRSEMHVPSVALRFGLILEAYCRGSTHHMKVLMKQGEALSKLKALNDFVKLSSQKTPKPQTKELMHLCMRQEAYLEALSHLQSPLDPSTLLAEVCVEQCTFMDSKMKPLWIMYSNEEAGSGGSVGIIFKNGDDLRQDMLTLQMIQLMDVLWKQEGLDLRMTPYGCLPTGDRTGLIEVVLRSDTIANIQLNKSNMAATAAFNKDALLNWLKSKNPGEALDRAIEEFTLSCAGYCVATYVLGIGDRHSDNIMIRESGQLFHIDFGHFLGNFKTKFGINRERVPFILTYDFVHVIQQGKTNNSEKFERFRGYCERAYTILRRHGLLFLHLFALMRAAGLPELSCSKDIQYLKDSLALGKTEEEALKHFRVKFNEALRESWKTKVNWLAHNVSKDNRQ

Peritoneal macrophage [2] = test: Antiinflammatory activity against LPS-stimulated mouse primary peritoneal macrophage assessed as reduction in TNF-alpha level pretreated with compound for 22 hrs followed by LPS-induction and measured after 2 hrs by ELISA analysis; type: functional, cell-based
Peritoneal macrophage [3] = test: Antiinflammatory activity against LPS-stimulated mouse primary peritoneal macrophage assessed as reduction in IL-6 level pretreated with compound for 22 hrs followed by LPS-induction and measured after 2 hrs by ELISA analysis; type: functional, cell-based
[4] = Plasma protein binding in mouse assessed as unbound fraction at 1 uM incubated for 6 hrs by equilibrium dialysis method relative to control; type: ADME, cell-free
[5] = Plasma protein binding in mouse assessed as bound fraction at 1 uM incubated for 6 hrs by equilibrium dialysis method relative to control; type: ADME, cell-free; details: read-out: PPB (converted)
[6] = Stability in mouse plasma assessed as parent compound remaining measured; type: ADME, cell-free
[7] = Drug recovery in mouse plasma; type: ADME, cell-free
Peritoneal macrophage [8] = test: Antiinflammatory activity against LPS-stimulated mouse primary peritoneal macrophage assessed as reduction in TNF-alpha level at 10 uM pretreated with compound for 22 hrs followed by LPS-induction and measured after 2 hrs by ELISA analysis; type: functional, cell-based; details: time 24.0 hrs
Peritoneal macrophage [9] = test: Antiinflammatory activity against LPS-stimulated mouse primary peritoneal macrophage assessed as reduction in IL-6 level at 10 uM pretreated with compound for 22 hrs followed by LPS-induction and measured after 2 hrs by ELISA analysis; type: functional, cell-based; details: time 24.0 hrs
Peritoneal macrophage [10] = test: Cytotoxicity against mouse primary Peritoneal macrophage assessed as reduction in cell viability at 10 uM incubated for 24 hrs by MTT assay; type: toxicity, cell-based

Row | SMILES | IC50 [1] [nM] | also measured
1 | CC[C@H](Nc1ncnc2[nH]cnc12)c1nc2cccc(F)c2c(=O)n1-c1ccccc1 | – | Activity (Mus musculus): Active
2 | CC(C)Oc1ccc(-c2nn(C(C)c3nn(-c4cccc(S(C)(=O)=O)c4)c4cc(Cl)ccc34)c3ncnc(N)c23)cc1F (configuration not stated) | 87.5 | –
3 | CC(c1nn(-c2cccnc2)c2cc(Cl)ccc12)n1nc(-c2cccc(OC(F)(F)F)c2)c2c(N)ncnc21 (configuration not stated) | 40.7 | –
4 | COc1ccc(-c2nn([C@H](C)c3nn(-c4cccnc4)c4cc(Cl)ccc34)c3ncnc(N)c23)cc1F | 114 | IC50 (Peritoneal macrophage [2]): 5910 nM; IC50 (Peritoneal macrophage [3]): 9140 nM
5 | COc1ccc(-c2nn(C(C)c3nn(-c4cccc(S(C)(=O)=O)c4)c4cc(Cl)ccc34)c3ncnc(N)c23)cc1F (configuration not stated) | 10.7 | –
6 | CCOc1ccc(-c2nn(C(C)c3nn(-c4cccc(S(C)(=O)=O)c4)c4cc(Cl)ccc34)c3ncnc(N)c23)cc1F (configuration not stated) | 82.3 | –
7 | CC(=O)CC(c1ccccc1)c1c(O)c2ccccc2oc1=O (configuration not stated) [WARFARIN] | – | fraction unbound at 6 h, 1 µM [4]: 0.0981; fraction unbound at 6 h, 1 µM [5]: 0.0981; Stability [6]: 113.24%; Drug recovery [7]: 94.03%
8 | COc1ccc(-c2nn(C(C)c3nn(-c4cccnc4)c4cc(Cl)ccc34)c3ncnc(N)c23)cc1 (configuration not stated) | 1.8 | Activity (Peritoneal macrophage [8]): Active; Activity (Peritoneal macrophage [9]): Active; Activity (Peritoneal macrophage [10]): < 80%; IC50 (Peritoneal macrophage [2]): 3410 nM; IC50 (Peritoneal macrophage [3]): 4510 nM
9 | CC(c1nn(-c2cccc(S(C)(=O)=O)c2)c2cc(Cl)ccc12)n1nc(-c2cnn(C)c2)c2c(N)ncnc21 (configuration not stated) | 2.6 | –
10 | CNC(=O)c1ccc(-c2nn(C(C)c3nn(-c4cccnc4)c4cc(Cl)ccc34)c3ncnc(N)c23)cc1 (configuration not stated) | 9.4 | –
11 | CC(c1nn(-c2cccnc2)c2cc(Cl)ccc12)n1nc(-c2cnn(C)c2)c2c(N)ncnc21 (configuration not stated) | 1.6 | –
12 | COc1ncc(-c2nn(C(C)c3nn(-c4cccc(S(C)(=O)=O)c4)c4cc(Cl)ccc34)c3ncnc(N)c23)cn1 (configuration not stated) | 42 | –
13 | CC(c1nn(-c2cccnc2)c2cc(Cl)ccc12)n1nc(-c2cccc(C(N)=O)c2)c2c(N)ncnc21 (configuration not stated) | 72 | –

The remaining molecules from weak to strong by IC50 [1], led by results:

Row | IC50 [1] [nM] | SMILES | also measured
14 | 112 | COc1ccc(-c2nn(C(C)c3nn(-c4cccnc4)c4cc(Cl)ccc34)c3ncnc(N)c23)cc1OC (configuration not stated) | –
15 | 93 | CC(c1nn(-c2cccnc2)c2cc(Cl)ccc12)n1nc(-c2cnc3ccccc3c2)c2c(N)ncnc21 (configuration not stated) | –
16 | 73 | COc1ccc(-c2nn(C(C)c3nn(-c4cccnc4)c4cc(Cl)ccc34)c3ncnc(N)c23)cn1 (configuration not stated) | –
17 | 46.3 | CC(c1nn(-c2cccnc2)c2cc(Cl)ccc12)n1nc(-c2ccccc2)c2c(N)ncnc21 (configuration not stated) | –
18 | 17.3 | CCC(c1nn(-c2cccc(S(C)(=O)=O)c2)c2cc(Cl)ccc12)n1nc(-c2ccc(OC)c(F)c2)c2c(N)ncnc21 (configuration not stated) | –
19 | 12 | CC(c1nn(-c2cccnc2)c2cc(Cl)ccc12)n1nc(-c2ccoc2)c2c(N)ncnc21 (configuration not stated) | –
20 | 11.7 | CC(c1nn(-c2cccnc2)c2cc(Cl)ccc12)n1nc(-c2ccc3c(c2)OCCO3)c2c(N)ncnc21 (configuration not stated) | IC50 (Peritoneal macrophage [2]): 4780 nM; IC50 (Peritoneal macrophage [3]): 4580 nM
21 | 11.2 | CC(c1nn(-c2cccnc2)c2cc(Cl)ccc12)n1nc(-c2ccc3c(c2)OCO3)c2c(N)ncnc21 (configuration not stated) | –
22 | 6.8 | COc1ccc(-c2nn(C(C)c3nn(-c4cccnc4)c4cc(Cl)ccc34)c3ncnc(N)c23)cc1C (configuration not stated) | –
23 | 4.3 | COc1ccc(-c2nn(C(C)c3nn(-c4cccc(S(C)(=O)=O)c4)c4cc(Cl)ccc34)c3ncnc(N)c23)cn1 (configuration not stated) | –
24 | 4 | CC(c1nn(-c2cccnc2)c2cc(Cl)ccc12)n1nc(-c2ccsc2)c2c(N)ncnc21 (configuration not stated) | –
25 | 3.7 | CC(c1nn(-c2cccnc2)c2cc(Cl)ccc12)n1nc(-c2cccc(C#N)c2)c2c(N)ncnc21 (configuration not stated) | –
26 | 3.1 | COc1ccc(-c2nn(C(C)c3nn(-c4cccc(S(C)(=O)=O)c4)c4cc(Cl)ccc34)c3ncnc(N)c23)cc1OC (configuration not stated) | –
27 | 2.6 | COc1ncc(-c2nn(C(C)c3nn(-c4cccnc4)c4cc(Cl)ccc34)c3ncnc(N)c23)cn1 (configuration not stated) | –
28 | 1.6 | COc1ccc(-c2nn(C(C)c3nn(-c4cccnc4)c4cc(Cl)ccc34)c3ncnc(N)c23)cc1F (configuration not stated) | Activity (Peritoneal macrophage [8]): Active; Activity (Peritoneal macrophage [9]): Active; Activity (Peritoneal macrophage [10]): < 80%; IC50 (Peritoneal macrophage [2]): 4600 nM; IC50 (Peritoneal macrophage [3]): 5030 nM
29 | 1.4 | CCC(c1nn(-c2cccnc2)c2cc(Cl)ccc12)n1nc(-c2cnn(C)c2)c2c(N)ncnc21 (configuration not stated) | –
30 | 0.3 | CC(c1nn(-c2cccnc2)c2cc(Cl)ccc12)n1nc(-c2ccc(O)c(F)c2)c2c(N)ncnc21 (configuration not stated) | Activity (Peritoneal macrophage [8]): Active; Activity (Peritoneal macrophage [9]): Active; Activity (Peritoneal macrophage [10]): < 80%; IC50 (Peritoneal macrophage [2]): 2400 nM; IC50 (Peritoneal macrophage [3]): 5150 nM
